Results from paper PMC5870190, “A three-in-one-bullet for oesophageal cancer: replication fork collapse, spindle attachment failure and enhanced radiosensitivity generated by a ruthenium(II) metallo-intercalator” (Chemical Science, 2017).

Tests used:
[1] = tested on: OE21 human oesophageal squamous cell carcinoma; assay: MTT assay, OE21 cells; type: cell-based; settings: for IC50: MTT
Description: MTT assay. OE21, FLO-1 or hSAEC1-KT cells were seeded in 96 well plates at 20,000 cells/well (for 24 h treatment) or 10,000 cells/well (for 72 h treatment) and allowed to adhere for 24 h before treatment. OE33 cells were seeded in 48 well plates at 40,000 cells/well (24 h treatment) or 20,000 cells/well (72 h treatment). Cancer cell lines were treated with chemicals dissolved in RPMI media for consistency. After incubation, 0.5 mg/ml MTT (thiazolyl blue tetrazolium bromide) dissolved in serum-free medium was added for 60 minutes and the formazan product eluted using acidified isopropanol.
The absorbance at 540 nm was quantified by plate reader (reference wavelength 650 nm). The metabolic activity of the cell population was determined as a percentage of a negative (solvent) control. […]
(§1) For the determination of mutation induction, from the untreated and each treated condition, 2x10^5 cells were plated in 10 x 100 mm dishes in selective media (regular media

OE21 cells = assay: Quantification of aberrant mitoses (CLSM); type: cell-based, human; settings: OE21, IC50 concentration, 24 h
Description: Microscopy and immunofluorescence. Cells were seeded on ibidi 35 mm µ-dishes (Thistle Scientific), allowed to adhere for 24 h and treated as stated in the main text. Cell media was removed, cells washed with PBS and fixed with formaldehyde (4%, 10 mins). Cells were permeablised with Triton (0.5% in PBS, 5 mins) and washed with PBS. Samples were blocked with BSA (3% in PBS-T) for 1 h before incubation with primary antibody (either anti-α-tubulin or anti-γ H2AX, 1/500 dilution) in BSA (3% in PBS-T) for 1 h. Samples were washed 3x in PBS-T and incubated with Alexa Fluor-conjugated secondary antibodies (3% in PBS-T, 1 h, 1/250 dilution). After further washing (3x5 min PBS-T) samples were co-stained with DAPI (5 ng/ml, 2 min), fresh PBS added and visualised by confocal microscopy. Samples were visualised using a Zeiss LSM 780 or LSM 710 inverted confocal microscope and EC Plan-Neofluar 40x/1.30 Oil objectives. […]
as §1

[Ru(phen)2(tpphz)]^2+ [Ru1]
IC50 ([1]; OE21, 24 h constant exposure): 21 ± 4.2 µM | IC50 ([1]; OE21, 72 h constant exposure): 2.9 ± 1.5 µM | greater potency than cisplatin ([1]; OE21, 72 h incubation): two-fold | mitotic aberrations, share of total cell population (OE21 cells): ~8%
